For 15 compounds, activity, IC50 and Activity results are on record in ChEMBL document CHEMBL1152605, “Novel 7H-pyrrolo[2,3-d]pyrimidine derivatives as potent and orally active STAT6 inhibitors” (Bioorg Med Chem, 2009).

Data set [1] concerns the target T1, CYP3A4 (Homo sapiens, UniProt P08684). The data set can be described thus: Inhibition of CYP3A4 in human liver microsomes assessed as residual activity at 5 uM. Type of data set: ADME, Microsome. Conditions: read-out: Activity. (In general: Liver microsomes are vesicles of endoplasmic reticulum, rich in cytochrome P450 enzymes.)
Data set [2] deals with T2, Signal transducer and activator of transcription 6 (Homo sapiens, UniProt P42226).
T2 sequence (P42226 whole entry): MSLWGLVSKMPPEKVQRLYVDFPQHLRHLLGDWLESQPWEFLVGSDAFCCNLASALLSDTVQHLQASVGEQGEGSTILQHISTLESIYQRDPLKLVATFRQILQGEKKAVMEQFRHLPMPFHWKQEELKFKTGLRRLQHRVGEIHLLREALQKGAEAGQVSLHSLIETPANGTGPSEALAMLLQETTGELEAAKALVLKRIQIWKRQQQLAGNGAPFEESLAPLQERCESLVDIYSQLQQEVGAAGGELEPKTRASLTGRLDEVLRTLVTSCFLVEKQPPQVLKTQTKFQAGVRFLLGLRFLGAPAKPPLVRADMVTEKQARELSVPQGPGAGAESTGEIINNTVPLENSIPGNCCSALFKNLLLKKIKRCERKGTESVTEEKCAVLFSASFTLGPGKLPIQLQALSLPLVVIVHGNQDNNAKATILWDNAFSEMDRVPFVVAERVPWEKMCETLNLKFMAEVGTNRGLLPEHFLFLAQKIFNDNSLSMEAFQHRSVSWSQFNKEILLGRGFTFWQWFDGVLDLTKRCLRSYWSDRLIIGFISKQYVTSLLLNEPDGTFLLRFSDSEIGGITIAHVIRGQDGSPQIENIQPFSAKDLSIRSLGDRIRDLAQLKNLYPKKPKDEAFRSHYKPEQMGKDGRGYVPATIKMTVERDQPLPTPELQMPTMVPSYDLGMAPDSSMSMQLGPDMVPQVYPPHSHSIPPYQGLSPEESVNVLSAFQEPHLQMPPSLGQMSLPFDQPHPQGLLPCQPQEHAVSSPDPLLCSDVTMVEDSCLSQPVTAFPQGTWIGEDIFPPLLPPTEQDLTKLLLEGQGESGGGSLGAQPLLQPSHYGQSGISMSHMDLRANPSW
Kind of data set: Inhibition of STAT6 in IL4-stimulated human FW4 reporter cells by luciferase assay.

Data set [3] addresses T1, CYP3A4. The data set can be described thus: Inhibition of CYP3A4 in human liver microsomes assessed as residual activity at 5 uM after 30 mins. The format is ADME, Microsome. Conditions: read-out: Activity.
The species named for another data set is Mus musculus. The data set can be described thus: Antiasthmatic activity in OVA-induced pulmonary eosinophila BALB/c mouse model assessed as suppression of eosinophil infiltration in lung treated 30 mins before and 24, 48 hrs after OVA challenge. The format is functional, organism-based.
The subject of another data set is T-cell. The data set can be described thus: Inhibition of IL4 production in C57BL/6 mouse T cell after 16 hrs by T cell differentiation assay. Conditions: C57BL/6, T-cell. Type of data set: functional, cell-based.

Molecules are shown by their SMILES.

T1 sequence (P08684 whole entry): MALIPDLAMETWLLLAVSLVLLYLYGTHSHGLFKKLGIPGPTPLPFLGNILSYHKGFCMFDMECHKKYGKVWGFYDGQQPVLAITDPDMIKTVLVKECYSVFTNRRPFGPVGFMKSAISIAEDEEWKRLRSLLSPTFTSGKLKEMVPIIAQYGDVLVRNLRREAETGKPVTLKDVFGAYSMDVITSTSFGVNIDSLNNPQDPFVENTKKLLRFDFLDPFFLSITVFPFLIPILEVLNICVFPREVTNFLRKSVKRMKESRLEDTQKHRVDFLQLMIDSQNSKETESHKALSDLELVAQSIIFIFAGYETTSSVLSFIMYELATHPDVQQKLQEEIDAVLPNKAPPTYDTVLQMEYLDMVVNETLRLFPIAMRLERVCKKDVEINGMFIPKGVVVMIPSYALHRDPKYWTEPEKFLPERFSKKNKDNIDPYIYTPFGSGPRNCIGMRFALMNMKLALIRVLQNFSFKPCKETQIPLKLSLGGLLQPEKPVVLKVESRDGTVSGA

Broadly, the IC50 is the midpoint of a concentration-inhibition curve. A high value points to lower potency. In the case of `NC(=O)c1cnc(Nc2ccc(N3CCOCC3)cc2)nc1NCc1c(F)ccc(F)c1F`, on CYP3A4 [1], the activity at 5 µM came out at 100%. In data set [2], this compound registered an IC50 of 0.7 nM. For the same compound, the activity at 0.5 h, 5 µM on CYP3A4 [3] was 31%.

As to `Fc1cc(F)cc(Cn2ccc3cnc(Nc4ccc(N5CCNCC5)cc4)nc32)c1`, the activity at 5 µM at CYP3A4 [1] turned out to be 74%. Moreover, the concentration for half-maximal inhibition (IC50) in data set [2] stood at 12 nM. Besides, at CYP3A4 [3], the activity at 0.5 h, 5 µM was found to be 95%.

Consider `NC(=O)CN1CCN(c2ccc(Nc3ncc4ccn(Cc5cc(F)cc(F)c5)c4n3)cc2)CC1`, for which the activity at 5 µM at CYP3A4 [1] came to 104%. Further, the Activity result in the data set listed under Mus musculus was “Dose-dependent effect”. Besides, the IC50 in the data set on T-cell amounted to 2.4 nM; in data set [2], 1.9 nM. Moreover, the activity at 0.5 h, 5 µM on CYP3A4 [3] turned out to be 85%.

With `CNC(=O)CN1CCN(c2ccc(Nc3ncc4ccn(Cc5cc(F)cc(F)c5)c4n3)cc2)CC1`, the activity at 5 µM on CYP3A4 [1] turned out to be 85%. For the same compound, the IC50 in data set [2] was 4.7 nM. On CYP3A4 [3], the activity at 0.5 h, 5 µM was determined as 77%.

Compound `NC(=O)c1cnc(Nc2ccc(N3CCOCC3)cc2)nc1NCc1ccccc1` registered an IC50 in data set [2] of 6.5 nM.

Take `OCCN1CCN(c2ccc(Nc3ncc4ccn(Cc5cc(F)cc(F)c5)c4n3)cc2)CC1`: at CYP3A4 [1], the activity at 5 µM amounted to 86%. This compound also displayed an IC50 in data set [2] of 5.6 nM. Moreover, the activity at 0.5 h, 5 µM on CYP3A4 [3] came out at 86%.

For `CN1CCN(c2ccc(Nc3ncc4ccn(Cc5cc(F)cc(F)c5)c4n3)cc2)CC1`, on CYP3A4 [1], the activity at 5 µM came to 90%. Further, 3.2 nM corresponded to half-maximal inhibition in data set [2] (IC50). Also, the activity at 0.5 h, 5 µM at CYP3A4 [3] worked out at 88%.

Turning to `NCCN1CCN(c2ccc(Nc3ncc4ccn(Cc5cc(F)cc(F)c5)c4n3)cc2)CC1`, the activity at 5 µM on CYP3A4 [1] was 65%. Further, in data set [2], half-maximal inhibition (IC50) was put at 34 nM. Also, the activity at 0.5 h, 5 µM at CYP3A4 [3] was found to be 105%.

On to `Fc1ccc(Cn2ccc3cnc(Nc4ccc(N5CCOCC5)cc4)nc32)cc1`, for which the activity at 5 µM at CYP3A4 [1] is 82%. The same compound registered an IC50 in data set [2] of 4100 nM. Moreover, the activity at 0.5 h, 5 µM on CYP3A4 [3] was 43%.

Regarding `c1ccc(Cn2ccc3cnc(Nc4ccc(N5CCOCC5)cc4)nc32)cc1`, the activity at 5 µM at CYP3A4 [1] turned out to be 88%. For the same compound, in data set [2], the IC50 came to 400 nM. At CYP3A4 [3], the activity at 0.5 h, 5 µM turned out to be 34%.

Turning to `Fc1cc(F)cc(Cn2ccc3cnc(Nc4ccc(N5CCOCC5)cc4)nc32)c1`, at CYP3A4 [1], the activity at 5 µM came to 80%. This compound displayed an IC50 in data set [2] of 120 nM. In addition, the activity at 0.5 h, 5 µM on CYP3A4 [3] was 37%.

`Fc1ccccc1Cn1ccc2cnc(Nc3ccc(N4CCOCC4)cc3)nc21`: the activity at 5 µM at CYP3A4 [1] was determined as 78%. In addition, 220 nM corresponded to half-maximal inhibition in data set [2] (IC50). Besides, the activity at 0.5 h, 5 µM on CYP3A4 [3] worked out at 32%.

Take `O=C(O)CN1CCN(c2ccc(Nc3ncc4ccn(Cc5cc(F)cc(F)c5)c4n3)cc2)CC1`: the activity at 5 µM on CYP3A4 [1] amounted to 100%. In data set [2], this compound displayed an IC50 of 26 nM. For the same compound, on CYP3A4 [3], the activity at 0.5 h, 5 µM is 98%.

For the compound `Fc1cccc(Cn2ccc3cnc(Nc4ccc(N5CCOCC5)cc4)nc32)c1`, the activity at 5 µM on CYP3A4 [1] is 97%. In data set [2], half-maximal inhibition (IC50) was put at 37 nM. Besides, on CYP3A4 [3], the activity at 0.5 h, 5 µM worked out at 56%.

In turn, `c1ccc(CN2CCc3cnc(Nc4ccc(N5CCOCC5)cc4)nc32)cc1` registered an IC50 in data set [2] of 8300 nM. This counts as single-digit micromolar.
